Test results published in patent US7071180B2, “Certain arylaliphatic and heteroaryl-aliphatic piperazinyl pyrazines and their use in the treatment of serotonin-related diseases” (Biovitrum AB, priority 1999, dated 2006).
Counter-ions that a name gives are not always drawn.

What was measured:
human 5-HT2c receptor = biological target: T1, human 5-HT2c receptor (Homo sapiens, UniProt P28335); assay: 5-HT2c receptor affinity assay (displacement of 3H-labelled 5-HT, Scintillation Proximity Assay); details: displacement of 3H-5-HT from membranes of transfected HEK293 cells expressing human 5-HT2c receptor; non-specific binding 5 μM mianserin
T1 construct: expressed in transfected cells
T1 sequence (P28335 33-458): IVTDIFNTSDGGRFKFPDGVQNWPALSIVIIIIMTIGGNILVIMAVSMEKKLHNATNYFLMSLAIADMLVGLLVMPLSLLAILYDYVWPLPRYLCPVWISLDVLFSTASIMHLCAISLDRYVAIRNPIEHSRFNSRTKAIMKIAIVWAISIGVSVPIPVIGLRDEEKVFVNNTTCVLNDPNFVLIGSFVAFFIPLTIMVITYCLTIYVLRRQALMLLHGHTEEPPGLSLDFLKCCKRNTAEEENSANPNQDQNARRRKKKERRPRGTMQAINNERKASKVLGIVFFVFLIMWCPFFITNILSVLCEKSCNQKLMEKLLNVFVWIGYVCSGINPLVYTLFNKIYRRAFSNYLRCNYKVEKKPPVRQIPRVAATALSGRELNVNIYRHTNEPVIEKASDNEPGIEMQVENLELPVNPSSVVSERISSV
Method: The 5-HT2c receptor affinity of compounds in the Examples was determined in competition experiments, where the ability of each compound in serial dilution to displace ^3H-labelled 5-HT, bound to membranes prepared from a transfected HEK293 cell line stably expressing the human 5-HT2c receptor protein was monitored by Scintillation Proximity Assay technology. Non-specific binding was defined using 5 μM mianserin. Typically, the 5HT2c receptor affinity values (Ki, nM) were in the range of 1 nM to 1500 nM.

[1] = controlled studies; cited from earlier work

Structure (SMILES)	melting point	Ki (human 5-HT2c receptor) [nM]	other results
CC1(C)Cc2cccc(OCCOc3nccnc3N3CCNCC3)c2O1 (as salt: maleate) [Example 158, 2-(2,3-Dihydro-2,2-dimethyl-7-benzofuranyloxy)ethyl 3-(1-piperazinyl)-2-pyrazinyl ether]	156 to 157 °C	–	–
c1cc(OCCOc2nccnc2N2CCNCC2)c2ncoc2c1 (as salt: maleate) [Example 159, 2-(1,3-Benzoxazol-4-yloxy)ethyl 3-(1-piperazinyl)-2-pyrazinyl ether]	191 to 193 °C	–	–
c1cncc(OCCOc2nc3ccccc3nc2N2CCNCC2)c1 (as salt: maleate) [Example 162, 2-[2-(3-Pyridinyloxy)ethoxy]-3-(1-piperazinyl)quinoxaline]	137 to 139 °C	–	–
Fc1cc2nc(OCCOc3cccnc3)c(N3CCNCC3)nc2cc1F (as salt: maleate) [Example 163, 2-[2-(3-Pyridinyloxy)ethoxy]-3-(1-piperazinyl)-6,7-difluoroquinoxaline]	110 to 115 °C	–	–
Clc1cc2nc(OCCOc3cccnc3)c(N3CCNCC3)nc2cc1Cl (as salt: maleate) [Example 164, 2-[2-(3-Pyridinyloxy)ethoxy]-3-(1-piperazinyl)-6,7-dichloroquinoxaline]	187 to 189 °C	–	–
c1cncc(OCCOc2nc3cscc3nc2N2CCNCC2)c1 (as salt: maleate) [Example 165, 2-[2-(3-Pyridinyloxy)ethoxy]3-(1-piperazinyl)thieno[3,4-b]pyrazine]	152 to 156 °C	–	–
c1cc2c(c(OCCOc3nccnc3N3CCNCC3)c1)OCC2 (as salt: maleate) [Example 186, 2-(2,3-Dihydrobenzofuran-7-yloxy)ethyl 3-(1-piperazinyl)-2-pyrazinyl ether]	149 to 154 °C	–	–
Clc1ccc(OCCOc2nccnc2N2CCNCC2)cn1 (as salt: maleate) [Example 203, 2-{2-[(6-Chloro-3-pyridinyl)oxy]ethoxy}-3-(1-piperazinyl)pyrazine]	145.9 to 146.3 °C	–	–
COc1ccc(OCCOc2nccnc2N2CCNCC2)cn1 (as salt: maleate) [Example 204, 2-{2-[(6-Methoxy-3-pyridinyl)oxy]ethoxy}-3-(1-piperazinyl)pyrazine]	151.8 to 152.6 °C	–	–
c1cncc(OCCOc2nsnc2N2CCNCC2)c1 (as salt: maleate) [Example 209, 1-{4-[2-(3-Pyridinyloxy)ethoxy]-1,2,5-thiadiazol-3-yl}piperazine]	116 to 118 °C	–	–
COc1ccccc1CCCOc1nccnc1N1CCNCC1 (as salt: maleate) [Example 211, 2-[3-(2-Methoxyphenyl)propoxy]-3-(1-piperazinyl)pyrazine]	132 to 133 °C	–	–
COc1ccccc1/C=C/COc1nccnc1N1CCNCC1 (as salt: maleate) [Example 212, 2-{[(2E)-3-(2-Methoxyphenyl)-2-propenyl]oxy}-3-(1-piperazinyl)pyrazine]	136 °C (dec.)	–	–
c1ccc2c(c1)CCC(COc1nc3ccccc3nc1N1CCNCC1)O2 (stereo not shown) (as salt: salt) [Example 168, 2-(3,4-Dihydro-2H-chromen-2-ylmethoxy)-3-(1-piperazinyl)quinoxaline]	202 to 204 °C	–	–
COc1cccc(OCCOc2nccnc2N2CCNCC2)c1 (as salt: toluenesulfonate) [Example 102, 2-[2-(3-Methoxyphenoxy)ethoxy]-3-(1-piperazinyl)pyrazine]	131 to 133 °C	–	–
Fc1cc(F)cc(OCCOc2nccnc2N2CCNCC2)c1 (as salt: toluenesulfonate) [Example 114, 2-[2-(3,5-Difluorophenoxy)ethoxy]-3-(1-piperazinyl)pyrazine]	118 to 119 °C	–	–
NC1CCN(c2nccnc2OCCOc2ccccc2Cl)C1 (stereo not shown) [Example 23, 2-(2-Chlorophenoxy)ethyl 3-(3-amino-1-pyrrolidinyl)-2-pyrazinyl ether]	–	377	–
Brc1cccc(OCCOc2nccnc2N2CCNCC2)c1 [Example 37, 2-(3-Bromophenoxy)ethyl 3-(1-piperazinyl)-2-pyrazinyl ether]	62 to 63 °C	–	–
Clc1ccc(OCCOc2nc3ccccc3nc2N2CCNCC2)cc1 [Example 39, 2-[2-(4-Chlorophenoxy)ethoxy]-3-(1-piperazinyl)quinoxaline]	108 to 112 °C	–	–
COc1cc(OC)cc(OCCOc2nccnc2N2CCNCC2)c1 [Example 57, 2-(3,5-Dimethoxyphenoxy)ethyl 3-(1-piperazinyl)-2-pyrazinyl ether]	–	24	–
c1cc(OCCOc2nccnc2N2CCNCC2)c2c(c1)OCCO2 [Example 79, 2-(2,3-Dihydro-1,4-benzodioxin-5-yloxy)ethyl 3-(1-piperazinyl)-2-pyrazinyl ether]	98 to 99 °C	–	–

Structure (SMILES)	melting point	Ki (human 5-HT2c receptor) [nM]	other results
O=C1CCc2c(OCCOc3nccnc3N3CCNCC3)cccc21 [Example 82, 2-(1-Oxoindanyl-4-yloxy)ethyl 3-(1-piperazinyl)-2-pyrazinyl ether]	–	116	–
Fc1cccc(F)c1OCCOc1nccnc1N1CCNCC1 [Example 83, 2-(2,6-Difluorophenoxy)ethyl 3-(1-piperazinyl)-2-pyrazinyl ether]	101 to 102 °C	–	–
FC(F)(F)c1ccccc1OCCOc1nccnc1N1CCNCC1 [Example 91, 2-(2-Trifluoromethylphenoxy)ethyl 3-(1-piperazinyl)-2-pyrazinyl ether]	79 to 80 °C	–	–
c1ccc(-c2ccccc2OCCOc2nccnc2N2CCNCC2)cc1 [Example 97, 2-[(1,1′Biphenyl)-2-yloxy]ethyl 3-(1-piperazinyl)-2-pyrazinyl ether]	101 to 103 °C	–	–
c1ccc2oc(COc3nccnc3N3CCNCC3)cc2c1 [Example 122, 2-(Benzofuran-2-ylmethoxy)-3-(1-piperazinyl)pyrazine]	–	45	–
c1ccc(CCCOc2nccnc2N2CCNCC2)nc1 [Example 125, 2-(1-piperazinyl)-3-[3-(2-pyridinyl)propoxy]pyrazine]	–	171	–
c1cnc2c(OCCOc3nccnc3N3CCNCC3)cccc2c1 [Example 138, 2-(8-Quinolinyloxy)ethyl 3-(1-piperazinyl)-2-pyrazinyl ether]	98 to 100 °C	–	–
c1cnc(N2CCNCC2)c(OCCOc2ccc3cc[nH]c3c2)n1 [Example 142, 6-(2-{[3-(1-piperazinyl)-2-pyrazinyl]oxy}ethoxy)-1H-indole]	111 to 113 °C	–	–
O=[N+]([O-])c1ccc2c(c1)OC(COc1nccnc1N1CCNCC1)CO2 (stereo not shown) [Example 146, 2-(7-Nitro-2,3-dihydro-1,4-benzodioxin-2-ylmethoxy)-3-(1-piperazinyl)pyrazine]	133 to 135 °C	–	–
c1cncc(OCCOc2nccnc2N2CCNCC2)c1 [Example 150, 2-(3-Pyridyloxy)ethyl 3-(1-piperazinyl)-2-pyrazinyl ether]	–	50	–
c1cc(OCCOc2nccnc2N2CCNCC2)ccn1 [Example 151, 2-(4-Pyridyloxy)ethyl 3-(1-piperazinyl)-2-pyrazinyl ether]	–	185	–
c1ccc2nc(N3CCNCC3)c(OCCOc3cncnc3)nc2c1 [Example 166, 2-[2-(5-Pyrimidinyloxy)ethoxy]-3-(1-piperazinyl)quinoxaline]	115 to 117 °C	–	–
c1ccc2c(c1)NCC(COc1nc3ccccc3nc1N1CCNCC1)O2 (stereo not shown) [Example 167, 2-(3,4-Dihydro-2H-1,4-benzoxazin-2-ylmethoxy)-3-(1-piperazinyl)quinoxaline]	–	34	–
C[C@@H]1CNCCN1c1nccnc1OCCOc1cccnc1 [Example 173, (2R)-Methyl-1-{3-[2-(3-pyridinyloxy)ethoxy]-2-pyrazinyl}piperazine]	–	16	–
CNc1ccc2cccc(OCCOc3nccnc3N3CCNCC3)c2n1 [Example 181, N-Methyl-8-(2-{[3-(1-piperazinyl)-2-pyrazinyl]oxy}ethoxy)-2-quinolinamine]	54 to 56.5 °C	–	–
Cc1nc(OCCOc2ccccc2)c(N2CCNCC2)nc1C [Example 183, 5,6-Dimethyl-2-(2-phenoxyethoxy)-3-(1-piperazinyl)pyrazine]	–	10	–
C[C@@H]1CNCCN1c1nccnc1OCCOc1cccnc1Cl [Example 194, (2R)-1-(3-{2-[(2-Chloro-3-pyridinyl)oxy]ethoxy}-2-pyrazinyl)-2-methylpiperazine]	–	5	–
c1ccc(COc2cccc(OCCOc3nccnc3N3CCNCC3)c2)cc1 [Example 231, 2-{2-[3-(Benzyloxy)phenoxy]ethoxy}-3-(1-piperazinyl)pyrazine]	–	12	–
CCN[C@@H](C)Cc1cccc(C(F)(F)F)c1 [dexfenfluramine]	–	–	body weight effect [1]: weight reduction
CNCCC(Oc1ccc(C(F)(F)F)cc1)c1ccccc1 (stereo not shown) [fluoxetine]	–	–	body weight effect [1]: weight reduction
